Measured values taken from US12544442B2, “Biocompatible nanomagnetic discs and methods of use thereof” (priority 2018, dated 2026).

What was measured:
HL60 cells [1] = assay: Rat HL60/estradiol tumor model with magnetic field exposure, tumor histopathology (H&E); assay type: in vivo; details: paclitaxel treated group, 40 mg/kg body weight; H&E 400×
Method: (§1) Efficacy studies of BMND were conducted in a rat model. Rats were injected with HL60 cells and estradiol to induce the generation of tumors on various organs. This is a well-established rat model of human tumors. The positive control comprised six healthy rats with no tumor induction and no drug treatment. The negative control comprised six tumor bearing rats with no drug treatment. The test groups included six rats in each group, all induced for tumors, and treated with either paclitaxel (gold standard chemotherapeutic; 40 mg/KG body weight), anti-HL60-BMND at 100 μg/kG body weight, or anti-HL60-BMND at 200 μg/KG body weight.
(§2) Procedure: Rats were inoculated with estradiol-17ß (1.7 mg/pellet) before an injection of 1×10^7 HL60 cells intravenously into tail vein. If tumor observed at various organs, the tumor size could be measured in three dimensions with calipers every 2 days starting at day 7. If tumor was not observed/not palpable, then tumor induction was confirmed by histopathology. […] After confirmation of tumor induction by histopathology, treatment was started.
The rats were exposed to magnetic field according to the following protocol. […] The following parameters were recorded: Treatment Time—60 minutes; Magnetic field intensity—90 G (Gauss); Frequency—20 Hz. […]
Confirmation of tumor was assessed as follows: Formalin fixed tissue of tumor area samples from various organs were received. […]

HL60 cells [2] = assay: Rat HL60/estradiol tumor model with magnetic field exposure, cancer cell count in blood; assay type: in vivo
Method: as §1, §2
The rats were exposed to magnetic field according to the following protocol. Rats strapped to the VFVF magnetizer as described above. The device was switched on to apply magnetic force of known intensity, frequency and duration to cause “flip/flop” action in the biocompatible magnetic nanodiscs. This application of oscillating field force is expected to cause the Nanomagnetic particles bound to the cell to “flip/flop.” This action is expected to damage the cell wall leading to apoptosis. The following parameters were recorded: Treatment Time—60 minutes; Magnetic field intensity—90 G (Gauss); Frequency—20 Hz. Waveform—sinusoidal
Cancer cell count in blood was ascertained for the treatment groups.

[3] = Paclitaxel 40 mg/kg body weight
[4] = STD group (Paclitaxel 40 mg/kg), baseline

## CC(=O)O[C@H]1C(=O)[C@@]2(C)[C@H]([C@H](OC(=O)c3ccccc3)[C@]3(O)C[C@H](OC(=O)[C@H](O)[C@@H](NC(=O)c4ccccc4)c4ccccc4)C(C)=C1C3(C)C)[C@]1(OC(C)=O)CO[C@@H]1C[C@@H]2O [Paclitaxel]
HL60 cells [1]
  tumor histopathology (FIG. 8C): neoplastic cells (small arrow) with stromal reaction, mitotic figures (arrow head), inflammation and necrosis (large arrow)
HL60 cells [2]; [3]
  Apoptotic cancer cells present per ml in the blood, After treatment 144 hrs: 5.20 × 10^3 per ml in the blood
  Viable cancer cells present per ml of blood, After treatment 144 hrs: 5.47 × 10^3 per ml of blood
HL60 cells [2]; [4]
  Apoptotic cancer cells present per ml in the blood, Before treatment: 852 per ml in the blood
  Viable cancer cells present per ml of blood, Before treatment: 16.08 × 10^3 per ml of blood
